In patent US20250144094A1 (Erasca, Inc., priority 2021, published 2025):

Target: Recombinant human ULK1 (1-649) (Homo sapiens (Human), UniProt O75385)
Test: ULK1 ADP Glo kinase activity assay (MBP substrate)
Settings: 25° C., 40 minutes, read-out: ULK1 biochemical IC50
Method: Recombinant human ULK1 (1-649) protein expressed in Sf9 insect cells was obtained from SignalChem (Vancouver, BC), catalog #U01-11G. Active kinase was purified via N-terminal GST tag to >85% purity.
ADP GLO Kinase Assay Reagents were obtained from Promega Corp (Madison, WI), catalog #V9104.
MBP (myelin basic protein) substrate, bovine, purified, was obtained from Sigma (St. Louis, MO), catalog #M1891.
ULK1 inhibitor potency was determined using the luminescent ADP Glo Kinase Assay (Promega), a universal ADP detection system that measures kinase activity by quantifying the amount of ADP produced during a kinase reaction. ULK1 kinase reactions are performed in a standard 96-well microplate (20 uL reaction volume) at 25° C. for 40 minutes in the presence or absence of the test compound (12-point dilution series starting at 10 uM). Addition of MBP substrate and ATP initiates the kinase reaction.
The standard ADP Glo assay is performed in two steps. In step one, following the kinase reaction, an equal volume of ADP-Glo™ Reagent (20 uL) is added to terminate the kinase reaction and deplete the remaining ATP. In the second step, the Kinase Detection Reagent (10 uL) is added to simultaneously convert ADP to ATP and allow the newly synthesized ATP to be measured using a luciferase/luciferin reaction. Step two of the ADP Glo assay is performed in a white 384-well plate (20 uL final volume). Thirty minutes after the addition of the Detection reagent, light generated from the luciferase reaction is measured (1 second exposure) using a microplate compatible luminometer (CLARIOstar, BMG Labtech).
Inhibition of ULK1 kinase activity is determined for each test compound by comparison to DMSO only control wells. Inhibitor IC50 was calculated by plotting the change in luminescence after 30 minutes (response) versus inhibitor concentration (in log molar) then applying the four-parameter variable slope curve fit (GraphPad Prism). Inhibition of ULK1 in biochemical assay is found in Table 3.

Recombinant human ULK1 (1-649), sequence (O75385 1-649): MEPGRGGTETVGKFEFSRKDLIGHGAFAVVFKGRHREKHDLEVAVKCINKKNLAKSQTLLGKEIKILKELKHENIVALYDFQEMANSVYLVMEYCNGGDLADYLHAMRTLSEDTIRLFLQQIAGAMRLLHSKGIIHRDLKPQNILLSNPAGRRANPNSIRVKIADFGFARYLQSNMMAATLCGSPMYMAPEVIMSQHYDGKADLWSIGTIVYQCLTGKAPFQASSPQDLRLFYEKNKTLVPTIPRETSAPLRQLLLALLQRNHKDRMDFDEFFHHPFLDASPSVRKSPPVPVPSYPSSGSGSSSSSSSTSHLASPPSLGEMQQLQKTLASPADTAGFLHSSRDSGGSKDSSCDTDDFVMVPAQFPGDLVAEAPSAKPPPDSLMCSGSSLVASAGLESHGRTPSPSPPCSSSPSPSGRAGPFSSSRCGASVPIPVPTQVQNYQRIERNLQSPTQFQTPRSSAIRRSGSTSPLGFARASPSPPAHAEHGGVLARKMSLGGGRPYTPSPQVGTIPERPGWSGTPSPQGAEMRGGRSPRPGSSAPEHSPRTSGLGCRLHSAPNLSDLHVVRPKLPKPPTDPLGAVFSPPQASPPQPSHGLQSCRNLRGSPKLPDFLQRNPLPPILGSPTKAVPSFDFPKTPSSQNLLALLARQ

IC50 | SMILES
≤ 10 nM | CN1CCCc2sc(-c3nc(Nc4cc5c(cc4Cl)CNCC5)ncc3C(F)(F)F)cc2C1=O [Example 47, 2-(2-((7-chloro-1,2,3,4-tetrahydroisoquinolin-6-yl)amino)-5-(trifluoromethyl)pyrimidin-4-yl)-5-methyl-5,6,7,8-tetrahydro-4H-thieno[3,2-c]azepin-4-one]
≤ 10 nM | CN1CCC(n2cc(Nc3ncc(C(F)(F)F)c(-c4cc5c(s4)CCNC5=O)n3)c(C3CC3)n2)CC1 [Example 48, 2-(2-((3-cyclopropyl-1-(1-methylpiperidin-4-yl)-1H-pyrazol-4-yl)amino)-5-(trifluoromethyl)pyrimidin-4-yl)-6,7-dihydrothieno[3,2-c]pyridin-4(5H)-one]
≤ 10 nM | CN1CCc2cc(Cl)c(Nc3ncc(C(F)(F)F)c(-c4cc5c(s4)CCCNC5=O)n3)cc2C1 [Example 49, 2-(2-((6-chloro-2-methyl-1,2,3,4-tetrahydroisoquinolin-7-yl)amino)-5-(trifluoromethyl)pyrimidin-4-yl)-5,6,7,8-tetrahydro-4H-thieno[3,2-c]azepin-4-one]
> 500 nM | Cc1nc(=O)c2cc(-c3nc(Nc4cc5c(cc4Cl)CNCC5)ncc3C(F)(F)F)sc2[nH]1 [Example 50, 6-(2-((7-chloro-1,2,3,4-tetrahydroisoquinolin-6-yl)amino)-5-(trifluoromethyl)pyrimidin-4-yl)-2-methylthieno[2,3-d]pyrimidin-4(1H)-one]
≤ 10 nM | CCS(=O)(=O)c1csc(-c2nc(Nc3cc4c(cc3Cl)CNCC4)ncc2C(F)(F)F)c1 [Example 51, 7-chloro-N-(4-(4-(ethylsulfonyl)thiophen-2-yl)-5-(trifluoromethyl)pyrimidin-2-yl)-1,2,3,4-tetrahydroisoquinolin-6-amine]
≤ 10 nM | COCCS(=O)(=O)c1csc(-c2nc(Nc3cc4c(cc3Cl)CNCC4)ncc2C(F)(F)F)c1 [Example 52, 7-chloro-N-(4-(4-((2-methoxyethyl)sulfonyl)thiophen-2-yl)-5-(trifluoromethyl)pyrimidin-2-yl)-1,2,3,4-tetrahydroisoquinolin-6-amine]
≤ 10 nM | O=C1NCCNc2sc(-c3nc(Nc4cc5c(cc4Cl)CNCC5)ncc3C(F)(F)F)cc21 [Example 53, 7-(2-((7-chloro-1,2,3,4-tetrahydroisoquinolin-6-yl)amino)-5-(trifluoromethyl)pyrimidin-4-yl)-1,2,3,4-tetrahydro-5H-thieno[2,3-e][1,4]diazepin-5-one]
100 to 500 nM | O=S(=O)(CCN1CCOCC1)c1csc(-c2nc(Nc3cc4c(cc3Cl)CNCC4)ncc2C(F)(F)F)c1 [Example 54, 7-chloro-N-(4-(4-((2-morpholinoethyl)sulfonyl)thiophen-2-yl)-5-(trifluoromethyl)pyrimidin-2-yl)-1,2,3,4-tetrahydroisoquinolin-6-amine]
≤ 10 nM | COCCOc1sc(-c2nc(Nc3cc4c(cc3Cl)CNCC4)ncc2C(F)(F)F)cc1C(N)=O [Example 55, 5-(2-((7-chloro-1,2,3,4-tetrahydroisoquinolin-6-yl)amino)-5-(trifluoromethyl)pyrimidin-4-yl)-2-(2-methoxyethoxy)thiophene-3-carboxamide]
≤ 10 nM | COCCOc1sc(-c2nc(Nc3cc4c(cc3Cl)CNCC4)ncc2C(F)(F)F)cc1S(C)(=O)=O [Example 56, 7-chloro-N-(4-(5-(2-methoxyethoxy)-4-(methylsulfonyl)thiophen-2-yl)-5-(trifluoromethyl)pyrimidin-2-yl)-1,2,3,4-tetrahydroisoquinolin-6-amine]
≤ 10 nM | COCCOc1sc(-c2nc(Nc3cc4c(cc3Cl)CN(C)CC4)ncc2C(F)(F)F)cc1S(C)(=O)=O [Example 57, 7-chloro-N-(4-(5-(2-methoxyethoxy)-4-(methylsulfonyl)thiophen-2-yl)-5-(trifluoromethyl)pyrimidin-2-yl)-2-methyl-1,2,3,4-tetrahydroisoquinolin-6-amine]
100 to 500 nM | CS(=O)(=O)c1cc(-c2nc(Nc3cc4c(cc3Cl)CNCC4)ncc2C(F)(F)F)sc1C(=O)N1CCOCC1 [Example 58, (5-(2-((7-chloro-1,2,3,4-tetrahydroisoquinolin-6-yl)amino)-5-(trifluoromethyl)pyrimidin-4-yl)-3-(methylsulfonyl)thiophen-2-yl)(morpholino)methanone]
≤ 10 nM | CS(=O)(=O)c1cc(-c2nc(Nc3cc4c(cc3Cl)CNCC4)ncc2C(F)(F)F)sc1C(N)=O [Example 59, 5-(2-((7-chloro-1,2,3,4-tetrahydroisoquinolin-6-yl)amino)-5-(trifluoromethyl)pyrimidin-4-yl)-3-(methylsulfonyl)thiophene-2-carboxamide]
≤ 10 nM | O=S1(=O)CCCOc2sc(-c3nc(Nc4cc5c(cc4Cl)CNCC5)ncc3C(F)(F)F)cc21 [Example 60, 2-(2-((7-chloro-1,2,3,4-tetrahydroisoquinolin-6-yl)amino)-5-(trifluoromethyl)pyrimidin-4-yl)-6,7-dihydro-5H-thieno[2,3-b][1,4]oxathiepine 4,4-dioxide]
100 to 500 nM | CN1CCc2cc(Nc3ncc(C(F)(F)F)c(-c4cc(S(C)(=O)=O)c(C(=O)N5CCOCC5)s4)n3)c(Cl)cc2C1 [Example 61, (5-(2-((7-chloro-2-methyl-1,2,3,4-tetrahydroisoquinolin-6-yl)amino)-5-(trifluoromethyl)pyrimidin-4-yl)-3-(methylsulfonyl)thiophen-2-yl)(morpholino)methanone]
10 to 50 nM | CS(=O)(=O)c1cc(-c2nc(Nc3cc4c(cc3Cl)CNCC4)ncc2C(F)(F)F)sc1CN1CCOCC1 [Example 62, 7-chloro-N-(4-(4-(methylsulfonyl)-5-(morpholinomethyl)thiophen-2-yl)-5-(trifluoromethyl)pyrimidin-2-yl)-1,2,3,4-tetrahydroisoquinolin-6-amine]
≤ 10 nM | CN1CCc2cc(Nc3ncc(C(F)(F)F)c(-c4cc(S(C)(=O)=O)c(C(N)=O)s4)n3)c(Cl)cc2C1 [Example 63, 5-(2-((7-Chloro-2-methyl-1,2,3,4-tetrahydroisoquinolin-6-yl)amino)-5-(trifluoromethyl)pyrimidin-4-yl)-3-(methylsulfonyl)thiophene-2-carboxamide]
≤ 10 nM | O=S1(=O)CCNCc2sc(-c3nc(Nc4cc5c(cc4Cl)CNCC5)ncc3C(F)(F)F)cc21 [Example 64, 7-(2-((7-chloro-1,2,3,4-tetrahydroisoquinolin-6-yl)amino)-5-(trifluoromethyl)pyrimidin-4-yl)-2,3,4,5-tetrahydrothieno[2,3-f][1,4]thiazepine 1,1-dioxide]
≤ 10 nM | COCCOc1sc(-c2nc(Nc3cc4c(cc3Cl)CN(C)CC4)ncc2C(F)(F)F)cc1C(N)=O [Example 66, 5-(2-((7-chloro-2-methyl-1,2,3,4-tetrahydroisoquinolin-6-yl)amino)-5-(trifluoromethyl)pyrimidin-4-yl)-2-(2-methoxyethoxy)thiophene-3-carboxamide]
10 to 50 nM | CN1CCc2cc(Nc3ncc(C(F)(F)F)c(-c4cc(S(C)(=O)=O)c(CN5CCOCC5)s4)n3)c(Cl)cc2C1 [Example 67, 7-chloro-2-methyl-N-(4-(4-(methylsulfonyl)-5-(morpholinomethyl)thiophen-2-yl)-5-(trifluoromethyl)pyrimidin-2-yl)-1,2,3,4-tetrahydroisoquinolin-6-amine]
≤ 10 nM | CSc1cc2c(cc1Nc1ncc(C(F)(F)F)c(-c3cc(S(C)(=O)=O)cs3)n1)CCN(C)C2 [Example 68, 2-methyl-N-(4-(4-(methylsulfonyl)thiophen-2-yl)-5-(trifluoromethyl)pyrimidin-2-yl)-7-(methylthio)-1,2,3,4-tetrahydroisoquinolin-6-amine]
≤ 10 nM | CN1CCc2cc(Nc3ncc(C(F)(F)F)c(-c4cc5c(s4)CNCCS5(=O)=O)n3)c(Cl)cc2C1 [Example 69, 7-(2-((7-chloro-2-methyl-1,2,3,4-tetrahydroisoquinolin-6-yl)amino)-5-(trifluoromethyl)pyrimidin-4-yl)-2,3,4,5-tetrahydrothieno[2,3-f][1,4]thiazepine 1,1-dioxide]
≤ 10 nM | O=C1NCCOc2sc(-c3nc(Nc4cc5c(cc4Cl)CNCC5)ncc3C(F)(F)F)cc21 [Example 71, 7-(2-((7-chloro-1,2,3,4-tetrahydroisoquinolin-6-yl)amino)-5-(trifluoromethyl)pyrimidin-4-yl)-3,4-dihydrothieno[3,2-f][1,4]oxazepin-5(2H)-one]
≤ 10 nM | CCc1cc2c(cc1Nc1ncc(C(F)(F)F)c(-c3cc(S(C)(=O)=O)cs3)n1)CNC2 [Example 72, 6-ethyl-N-(4-(4-(methylsulfonyl)thiophen-2-yl)-5-(trifluoromethyl)pyrimidin-2-yl)isoindolin-5-amine]
≤ 10 nM | CS(=O)(=O)c1csc(-c2nc(Nc3cc4c(cc3Cl)CNC4)ncc2C(F)(F)F)c1 [Example 73, 6-chloro-N-(4-(4-(methylsulfonyl)thiophen-2-yl)-5-(trifluoromethyl)pyrimidin-2-yl)isoindolin-5-amine]
